{"source": "patent US5976813A", "about": "“Continuous format high throughput screening” (priority 1997, dated 1999)", "key": {"VanA": {"tested_on": "VanA", "conditions": "statement on known inhibitor used as positive control; cited from earlier work"}, "[1]": {"target": "S. Cerevisiae Elongation Factor 3 (Saccharomyces cerevisiae, UniProt P16521)", "sequence (P16521 whole entry)": "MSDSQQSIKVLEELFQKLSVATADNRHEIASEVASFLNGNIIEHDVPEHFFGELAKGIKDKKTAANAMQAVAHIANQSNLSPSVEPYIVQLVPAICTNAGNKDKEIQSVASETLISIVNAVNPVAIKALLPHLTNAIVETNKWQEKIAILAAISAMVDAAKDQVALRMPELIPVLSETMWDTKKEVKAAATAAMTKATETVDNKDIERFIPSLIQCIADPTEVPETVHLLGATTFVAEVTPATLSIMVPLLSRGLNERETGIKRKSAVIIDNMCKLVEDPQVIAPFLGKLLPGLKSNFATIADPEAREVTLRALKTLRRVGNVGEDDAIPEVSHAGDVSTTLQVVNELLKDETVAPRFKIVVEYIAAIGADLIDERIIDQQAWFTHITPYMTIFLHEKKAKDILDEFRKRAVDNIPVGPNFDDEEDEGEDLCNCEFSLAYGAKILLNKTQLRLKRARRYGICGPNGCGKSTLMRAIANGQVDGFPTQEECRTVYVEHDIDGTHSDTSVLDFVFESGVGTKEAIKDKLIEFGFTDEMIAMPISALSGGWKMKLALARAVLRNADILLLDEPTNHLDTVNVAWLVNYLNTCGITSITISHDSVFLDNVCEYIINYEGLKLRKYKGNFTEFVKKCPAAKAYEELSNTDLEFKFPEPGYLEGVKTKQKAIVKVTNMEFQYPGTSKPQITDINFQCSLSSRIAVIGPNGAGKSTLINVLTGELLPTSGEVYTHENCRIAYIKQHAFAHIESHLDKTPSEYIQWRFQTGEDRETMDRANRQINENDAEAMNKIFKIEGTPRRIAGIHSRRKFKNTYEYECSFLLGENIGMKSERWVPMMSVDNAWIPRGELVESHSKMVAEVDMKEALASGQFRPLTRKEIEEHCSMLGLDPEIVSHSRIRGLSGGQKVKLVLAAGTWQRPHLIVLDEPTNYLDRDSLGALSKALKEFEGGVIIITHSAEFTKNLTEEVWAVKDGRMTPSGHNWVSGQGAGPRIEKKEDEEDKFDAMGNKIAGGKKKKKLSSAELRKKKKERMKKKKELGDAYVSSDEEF", "assay": "Two-step gel assay for phosphate generated by EF-3 ATPase activity stimulated by ribosome binding", "assay_type": "biochemical", "conditions": "inhibitor amounts 5 picomole to 200 picomole; FIG. 7", "experimental": "A two-step gel assay for detecting phosphate generated by S. Cerevisiae Elongation Factor 3 ATPase activity stimulated by Ribosomes binding\nWhen fungal elongation factor 3 (EF-3) interacts with ribosomes, […] is stimulated. The inventors have applied CF-HTS to the assay for this activity.\nAn enzyme gel containing EF-3 (a highly temperature sensitive enzyme) and yeast ribosomes in EF-3 assay buffer was prepared. A substrate gel containing 1 mM ATP in assay buffer was also prepared. Both gels contained 2% dimethyl sulfoxide in low melting agarose (Gibco BRL), and were prepared at 37° C. and allowed to set for 30 minutes at 4° C. Serial dilutions of Poly-L-lysine, an inhibitor of EF-3 used as a control sample, was spotted onto PVDC film and dried (sample matrix). The assay was then conducted as in Example 1 by pre-incubating the enzyme gel with the inhibitors on the sample matrix. Then the enzyme gel was placed in contact with the substrate gel for 20 minutes. As in Example 1, the enzyme and substrate gels were stained with Malachite green/Ammonium Molybdate color development cocktail. Then the enzyme gel was imaged with a CCD camera. The inhibitor spots appear as clearer zones in a green background. FIG. 7 illustrates color development on the gel where inhibitor amounts varied from 5 picomole to 200 picomole."}, "IL-8a receptor": {"tested_on": "IL-8a receptor", "assay": "Gel/filter CF-HTS control: ^125 I-IL-8 binding to HEK cells expressing the IL-8a receptor", "conditions": "^125 I-IL-8 in agarose gel diffusing through cell matrix; FIG. 12", "experimental": "HEK cells (ATCC, Bethesda, M.D.) expressing the IL-8a receptor were plated on a 75 mm diameter transwell membrane filter (Corning Costar Corp, Cambridge, Mass.) at a density of about 20 million cells per plate. They were allowed to attach to the membrane filter overnight in buffer (RPMI from Life Technologies, Grand Island, N.Y.) containing 10 mM Hepes (Sigma, St Louis, Mo.) at pH 7.2 and 37° C. After the cells were attached to the filter, the media was removed, and the cells were washed with fresh buffer to remove any unattached cells. The filters were inverted cell-side down and placed at an angle to allow excess media to drain, and then dried for 20 minutes. This was timed so that the cell matrix could be immediately used in the assay described below.\nThe ligand matrix was prepared by soaking ^125 I labeled IL-8 (Amersham, Inc., Arlington Heights, Ill.) into an agarose gel made by mixing 0.1 g agarose with 10 ml buffer, heating until molten, and then casting in a 8×7×0.075 cm gel apparatus. The gels were soaked overnight at RT while slowly mixing on a rotating platform (New Brunswick Scientific Co., Inc, Edison, N.J.). After soaking, the gels were dried for 20 minutes at RT just prior to use. This was timed so that the gel could be immediately used in the assay. […]"}}}
{"compound": "N[C@@H]1CONC1=O", "note": "[D-cycloserine]", "values": [{"measurement": "inhibition of VanA", "setting": "VanA", "value": "inhibits VanA in a dose-dependent manner"}]}
{"compound": "Poly-L-lysine", "values": [{"measurement": "inhibition of EF-3 in gel assay (clearer zones in green background)", "setting": "[1]", "value": "dose dependent signal of the inhibitor"}]}
{"compound": "^125 I-IL-8: ^125 I labeled IL-8 (Amersham)", "values": [{"measurement": "binding to HEK cells expressing the IL-8a receptor", "setting": "IL-8a receptor", "value": "dose response"}]}
